# Assay results as given in patent publication US10450258B2, “Substituted aromatic compounds for the treatment of pulmonary fibrosis, liver fibrosis, skin fibrosis and cardiac fibrosis” (PROMETIC PHARMA SMT LIMITED, priority 2013, dated 2019).
# What was measured:
# [1] = system: collagen 1 mRNA in NHDF cells; experiment: Inhibition of collagen mRNA in TGF-β-activated NHDF fibroblasts; type: cell-based; conditions: Homo sapiens, compound 0.5 mM
# Method: (§1) CTGF, collagen 1 and α-SMA are fibrotic markers produced by activated fibroblasts and by epithelial cells that undergo to epithelial-mesenchymal transition (EMT).
# (§2) Table 2: Percentage of inhibition of collagen in epithelial cells (HK2 cells) and fibroblasts (NHDF) and percentage of inhibition of α-SMA in fibroblasts (NRK-49F and NHDF) has been determined for several compounds according the invention. In all cases, the mRNA of collagen and α-SMA has been measured, and the inhibition was evaluated in presence of a respective concentration of the tested compound. The compounds have been tested at different concentrations [mM]. All compounds reduce the expression of collagen and α-SMA in HK-2, NHDF and NRK-49F cells.
# [2] = system: α-SMA mRNA in NRK-49F cells; experiment: Inhibition of α-SMA mRNA in TGF-β-activated NRK-49F fibroblasts; type: cell-based, rat; conditions: Rattus norvegicus, NRK-49F, compound 0.5 mM
# Method: as §1, §2
# [3] = system: normal human dermal fibroblasts (NHDF); experiment: TGF-β-induced and basal CTGF, collagen 1 and α-SMA transcript expression in NHDF (quantitative real-time PCR); type: cell-based
# Method: The effect of Compound of the invention on skin fibrosis was studied using normal human dermal fibroblasts (NHDF).
# In vitro analysis was undertaken to determine the effect of Compound I on TGF-β-induced CTGF, collagen 1 and α-SMA (markers of fibrosis) on normal human dermal fibroblasts (NHDF). Expression of the profibrotic (CTGF) and fibrotic markers (collagen 1 and α-SMA) were determined by quantitative real-time PCR.
# Myofibroblasts are terminally differentiated cells derived from fibroblasts, epithelial and mesenchymal stem/stromal (fibrocytes) cells that play an important role in tissue fibrosis via increased matrix synthesis such as collagen. α-SMA is a well-known marker of myofibroblast.
# α-SMA mRNA in NHDF cells = experiment: Inhibition of α-SMA mRNA in TGF-β-activated NHDF fibroblasts; type: cell-based; conditions: Homo sapiens, compound 0.5 mM
# Method: as §1, §2
# [4] = system: CCl4-induced liver fibrosis mouse model; experiment: CCl4-induced liver fibrosis mouse model; type: in vivo, mouse (male C57BL/6)
# Description: Hepatic fibrosis is an outcome of many chronic liver diseases, including hepatitis B virus, hepatitis C virus, alcoholic liver disease, non-alcoholic steatohepatitis and diverse chronic intoxication. It was thus desired to evaluate the effect of Compound I on murine CCl4-induced liver fibrosis. Intoxication with CCl4 results in hepatocyte damage, necrosis, inflammation, and fibrosis, which spreads to link the vascular structures that feed into and drain the hepatic sinusoid (the portal tract and central vein radical, respectively), and over 8-30 weeks results in the development of fibrosis to hepatocellular carcinoma. Therefore, evaluation of candidate antifibrotic drugs such as Compound I can be undertaken by treatment of the mice at appropriate time points and histologic, biochemical and cellular readouts may be used to monitor candidate drug efficacy in this model.
# CCl4 (10% in corn oil, 2 ml/kg) was intraperitoneally injected twice a week for 16 weeks in male C57BL/6. Compound I (200 mg/kg) was orally administered every day from day 1 to day 113. Mice were euthanasized and histology and liver fibrotic markers were analyzed.
# To determine if Compound I has an effect on liver fibrosis, hydroxyproline level was used to measure the collagen content in the tissue, which is indicative of liver fibrosis.
# The reduction of collagen level in liver tissue was also observed in histological micrographs using the Masson's Trichrome staining.
# The Masson's trichrome stain the cytoplasm, keratin, muscle fibers and intracellular fibers in red colour; nuclei in black colour and collagen (fibrous tissue) in blue color.
# Another experiment has been performed with Compound 1 and Compound V where CCL4 (10% in olive oil, 2 ml/kg) was intraperitoneally injected twice a week for 8 weeks in male C57BL/6. Compound 1 and compound V were orally administered (100 and 200 mg/kg) every day from day 1 to day 58. Mice were euthanasized and collagen content (marker of fibrosis) in the liver was quantified by histomorphometry using Masson's trichrome staining.
# [5] = system: TGF-β, CTGF, IL-23p19, IL-6, collagen 1, fibronectin (FN-1), collagen 3 mRNA in lung tissue; experiment: Real-time PCR of inflammatory and fibrotic marker mRNA in lung tissue, bleomycin-induced pulmonary fibrosis mouse model; type: in vivo, mouse (male C57BL6)
# Method: Male C57BL6 mice are administered intratracheal instillation of bleomycin sulphate (0.025 U) at day 0, randomized and administered Compound I (oral administration, 100 mg/kg and 200 mg/kg) on day 7 to day 20.
# Further analysis of the lung tissue was undertaken. CTGF, collagen 1 and IL-23p19 mRNA expression was quantified by real-time PCR.
# It was therefore evaluated side-by-side with Compound I in the bleomycin-induced pulmonary fibrosis mouse model by the same protocol described in Example 4 above. Compound I (200 mg/kg) and pirfenidone (400 mg/kg) were orally administered either alone or in combination.
# In order to determine the effect of Compound I on pulmonary fibrosis, further analysis of the lung tissue was undertaken. TGF-β, CTGF, IL-23 and IL-6 mRNA expression was quantified by real-time PCR. […] Oral administration of pirfenidone had no effect on CTGF mRNA expression but decreased TGF-β, IL-23 and IL-6 mRNA expression. […]
# [6] = system: collagen 1 mRNA in HK-2 cells (epithelial cells); experiment: Inhibition of collagen mRNA in TGF-β-treated HK-2 epithelial cells; type: cell-based; conditions: Homo sapiens, HK-2, compound 0.5 mM
# Method: as §1, §2
structure (smiles),measurement,setting,value
"CCCCCc1cccc(CC(=O)[O-])c1.[Na+] [Compound I, Sodium Salt of 3-pentylphenylacetic acid]",inhibition at 500 µM,[1],65%
same,inhibition at 500 µM,[2],85%
same,TGF-β-induced CTGF transcript expression,"[3]; TGF-β 5 ng/ml, compound 500 μM, FIG. 23",inhibited
same,TGF-β-induced collagen 1 transcript expression,"[3]; TGF-β 5 ng/ml, compound 500 μM, FIG. 24",inhibited
same,TGF-β-induced α-SMA transcript expression,"[3]; TGF-β 5 ng/ml, compound 500 μM, FIG. 25",inhibited
same,inhibition of α-SMA in TGF-β induced fibroblasts,[3]; TGF-β induced,90%
same,basal expression of CTGF,"[3]; compound alone (0.5 mM), no TGF-β, FIG. 23",decreased basal expression
same,basal expression of collagen 1,"[3]; compound alone (0.5 mM), no TGF-β, FIG. 24",decreased basal expression
same,basal expression of α-SMA,"[3]; compound alone (0.5 mM), no TGF-β, FIG. 25",decreased basal expression
same,inhibition at 500 µM,α-SMA mRNA in NHDF cells,99%
same,collagen score in liver (Masson's Trichrome staining),"[4]; CCl4 16 weeks, oral 200 mg/kg daily, FIG. 20",significant reduction
same,collagen deposition and bridging formation in liver (photomicrographs),"[4]; CCl4 16 weeks, oral 200 mg/kg daily, FIG. 21",significant reduction of collagen deposition and bridging formation
same,"collagen content in liver (histomorphometry, Masson's trichrome)","[4]; CCl4 twice a week for 8 weeks, oral 100 and 200 mg/kg every day, day 1 to day 58, FIG. 22",significant reduction
same,hydroxyproline level in liver,"[4]; CCl4 twice a week for 16 weeks, oral 200 mg/kg every day, day 1 to day 113, FIG. 19",significant reduction
same,CTGF mRNA expression in lungs,"[5]; oral 100 and 200 mg/kg, Example 21, FIG. 4",significantly decreased the expression
same,IL-23p19 mRNA expression in lungs,"[5]; oral 100 and 200 mg/kg, Example 21, FIG. 5",significantly decreased the expression
same,collagen 1 mRNA expression in lungs,"[5]; oral 100 and 200 mg/kg, Example 21, FIG. 6",significantly decreased the expression
same,TGF-β mRNA expression in lungs,"[5]; oral, Compound I 200 mg/kg, pirfenidone 400 mg/kg, alone or combined, FIG. 12",significantly decreased the expression
same,CTGF mRNA expression in lungs,"[5]; oral, Compound I 200 mg/kg, pirfenidone 400 mg/kg, alone or combined, FIG. 13",significantly decreased the expression
same,IL-23 mRNA expression in lungs,"[5]; oral, Compound I 200 mg/kg, pirfenidone 400 mg/kg, alone or combined, FIG. 14",significantly decreased the expression
same,IL-6 mRNA expression in lungs,"[5]; oral, Compound I 200 mg/kg, pirfenidone 400 mg/kg, alone or combined, FIG. 15",significantly decreased the expression
same,collagen 3 mRNA expression in lungs,"[5]; oral, Compound I 200 mg/kg, pirfenidone 400 mg/kg, alone or combined, FIG. 18",weak reduction
same,collagen 1 mRNA expression in lungs,"[5]; oral, Compound I 200 mg/kg, pirfenidone 400 mg/kg, alone or combined, reduction to the control level, FIG. 16",significant reduction
same,fibronectin (FN-1) mRNA expression in lungs,"[5]; oral, Compound I 200 mg/kg, pirfenidone 400 mg/kg, alone or combined, reduction to the control level, FIG. 17",significant reduction
same,inhibition at 500 µM,[6],86%
